Molecules are shown by their SMILES. Some results are limits rather than exact numbers.

The subject of this experiment is C6/36 Aedes albopictus cell line infected with Wolbachia pipientis (Wolbachia strain wAlbB). The experiment is described as follows: In vitro insect cell line assay (anti-Wolbachia screen, SYTO 11 high content imaging). It is filed as cell-based. The conditions noted are these: 168 h; C6/36 Aedes albopictus cells infected with Wolbachia pipientis wAlbB, 7 days incubation, SYTO 11 imaging; read-out: In vitro anti-Wolbachia activity. Here is the method:
A C6/36 Aedes albopictus cell line infected with Wolbachia pipientis (Wolbachia strain wAlbB) derived from Aa23 A. albopictus cell line (O'Neill et al., 1997; Insect Mol Biol; Turner et al., (2006) J. Immunol. 7:1240-1249) was used to screen compounds. Cells were cultured in Leibovitz's L15+L-glutamine supplemented with heat-inactivated Foetal Calf Serum (HI-FCS), non-essential amino acids and tryptose phosphate broth. Culture medium was filter-sterilized through a 0.2 μm filter and stored at 4° C. Compounds were provided as 10 mM stocks in DMSO, diluted to 50 μM working stock to give final concentration of 5 μM on the test plate. Concentrated stocks were frozen at −20° C.
Prior to use in the screening assay, cell cultures were sub-passaged (6 days prior) to provide ˜90% confluent cells on Day 0 of screening assay. On Day 0 (assay set-up), the medium was removed from the stock culture flask and replaced with fresh medium. The cells were detached by scraping and cell density was calculated using an automated cell counter. The cells were then diluted at working density and aliquoted at 90 μl to each well of a Cell Carrier 384 well plate (Perkin Elmer). Cell plates were incubated at 26° C.
Control solution (DMSO-medium) was dispensed at 10 μl per well for “untreated” wells. Test solution (Drug-DMSO) was also dispensed at 10 μl (from working plate) per well for “treated” wells. The plates were incubated at 26° C., inside plastic wallet in incubator, for 7 days.
On Day 7, 25 μl of staining medium/dye (SYTO 11, Life Technologies) was added to each sample well and allowed to stain for 15 minutes in the dark. All the medium was removed from each sample well without disturbing the cells and replaced with 100 μl of fresh medium. Plates were imaged on the Operetta High Content Imaging system (Perkin Elmer) and analyzed using texture analysis through Harmony software (Perkin Elmer). The cell-based screen and analysis are described in detail in Clare et al. (2014) J Biomol Screen.
On to `CS(=O)(=O)C1CCN(c2nc(NCc3ccccc3C(F)(F)F)c3cccnc3n2)CC1` [Example 243, 2-(4-(methylsulfonyl)piperidin-1-yl)-N-(2-(trifluoromethyl)benzyl)pyrido[2,3-d]pyrimidin-4-amine], for which the EC50 lay within 100 to 1000 nM.

For the molecule `Cc1nc(N(C)C(C)c2ccccc2C(F)(F)F)c2sc(C)cc2n1` (centres unmarked) [Example 69, N,2,6-trimethyl-N-(1-(2-(trifluoromethyl)phenyl)ethyl)thieno[3,2-d]pyrimidin-4-amine], the EC50 lay in the range of 1000 to 100000 nM.

As for `CC(C)Nc1nc(NCc2cccnc2C(F)(F)F)c2ncccc2n1` [Example 152, N^2-isopropyl-N^4-((2-(trifluoromethyl)pyridin-3-yl)methyl)pyrido[3,2-d]pyrimidine-2,4-diamine], the EC50 lay in the range of 100 to 1000 nM.

For `FC(F)(F)c1ncccc1CNc1nc(N2CCCC2)nc2ncccc12` [Example 174, 2-(pyrrolidin-1-yl)-N-((2-(trifluoromethyl)pyridin-3-yl)methyl)pyrido[2,3-d]pyrimidin-4-amine], the EC50 fell in the range of 0.01 to 1 nM.

As to `CC(C)(O)c1nc(NCc2ccccc2C(F)(F)F)c2sccc2n1` [Example 86], the EC50 lay in the range of 1000 to 100000 nM.

With `FC1CCN(c2nc(NCc3cccnc3C(F)(F)F)c3cccnc3n2)C1` (centres unmarked) [Example 242, 2-(3-fluoropyrrolidin-1-yl)-N-((2-(trifluoromethyl)pyridin-3-yl)methyl)pyrido[2,3-a]pyrimidin-4-amine], the EC50 was 1 to 10 nM.

As for `FC(F)(F)c1ncccc1CNc1nc(N2CCCCC23CC3)nc2ncccc12` [Example 296, 2-(4-azaspiro[2.5]octan-4-yl)-N-((2-(trifluoromethyl)pyridin-3-yl)methyl)pyrido[2,3-d]pyrimidin-4-amine], the EC50 is below 0.01 nM.

Consider `CC1(C)CN(c2nc(NCc3ccccc3C(F)(F)F)c3cccnc3n2)CCO1` [Example 247, 2-(2,2-dimethylmorpholino)-N-(2-(trifluoromethyl)benzyl)pyrido[2,3-d]pyrimidin-4-amine], for which the EC50 was below 0.01 nM.

Turning to `FC(F)C1CN(c2nc(NCc3ccccc3C(F)(F)F)c3cccnc3n2)C1` [Example 276, 2-(3-(difluoromethyl)azetidin-1-yl)-N-(2-(trifluoromethyl)benzyl)pyrido[2,3-d]pyrimidin-4-amine], the EC50 is below 0.01 nM.

As to `CS(=O)(=O)c1ccccc1CNc1nc(Cl)nc2ccccc12` [Example 113], the EC50 is 1000 to 100000 nM.

On to `CC(O)c1nc(NCc2ccccc2C(F)(F)F)c2sccc2n1` (centres unmarked) [Example 84], for which the EC50 is 1000 to 100000 nM.

For `CC(C)Nc1nc(NCc2ccc(C(F)(F)F)nc2)c2cccnc2n1` [Example 130, N^2-isopropyl-N^4-((6-(trifluoromethyl)pyridin-3-yl)methyl)pyrido[2,3-d]pyrimidine-2,4-diamine], the EC50 lay in the range of 1000 to 100000 nM.

Regarding `N#CC1CCCN(c2nc(NCc3cccnc3C(F)(F)F)c3cccnc3n2)C1` (centres unmarked) [Example 251], the EC50 is 1 to 10 nM.

Regarding `Cc1nc(NCc2cccnc2C(F)(F)F)c2cccnc2n1` [Example 177, 2-methyl-N-((2-(trifluoromethyl)pyridin-3-yl)methyl)pyrido[2,3-d]pyrimidin-4-amine], the EC50 was 1000 to 100000 nM.

As for `Fc1ccc(CNc2ncnc3ccsc23)c(C(F)(F)F)c1` [Example 60, N-(4-fluoro-2-(trifluoromethyl)benzyl)thieno[3,2-d]pyrimidin-4-amine], the EC50 was 10 to 100 nM.

On to `CC1COC[C@@H](C)N1c1nc(NCc2cccnc2C(F)(F)F)c2cccnc2n1` (stereo partly drawn) [Example 275, 2-((3R)-3,5-dimethylmorpholino)-N-((2-(trifluoromethyl)pyridin-3-yl)methyl)pyrido[2,3-d]pyrimidin-4-amine], for which the EC50 is 0.01 to 1 nM.

In the case of `C[C@H]1CN(c2nc(NCc3cccnc3C(F)(F)F)c3cccnc3n2)[C@@H](C)CO1` [Example 279, 2-((2S,5S)-2,5-dimethylmorpholino)-N-((2-(trifluoromethyl)pyridin-3-yl)methyl)pyrido[2,3-d]pyrimidin-4-amine], the EC50 is 0.01 to 1 nM.
